Test results: patent US20240158446A1, “CYCLIC COMPOUND HAVING SELECTIVE INHIBITORY ACTION ON KRAS OVER HRAS AND NRAS” (CHUGAI SEIYAKU KABUSHIKI KAISHA, priority 2021, published 2024)
*1 amine or outer side, *2 acyl side, *3 side chain or, on linkers, in order; H or OH if unused. Where a SMILES comes first, the peptide text is derived from it. Bridges are numbered along the chain shown (N, C = ends). [ ]: non-standard residue; d: D form. The star is where a group is joined. hPhe(3-Cl-4-CF3) = N[C@@H](CCc1ccc(C(F)(F)F)c(Cl)c1)C(=O)O; NPrPhe(4-CF3) = CCCN[C@@H](Cc1ccc(C(F)(F)F)cc1)C(=O)O; NEtAsp = CCN([C@@H](CC(=O)[*:3])C(=O)[*:2])[*:1]; NMeGly(cPent) = CN[C@H](C(=O)O)C1CCCC1; NMeL = CN[C@@H](CC(C)C)C(=O)O; Morpholide = C1CN(*)CCO1; Ac5c = NC1(C(=O)O)CCCC1; Sar = CNCC(=O)O

What was measured:
[1] = test system: human lung cancer strain NCI-H441; assay: cells; conditions: NCI-H441, 96 h, read-out: NCI-H441 IC50 (nM), NCI-H441 cell proliferation, 4 days, CellTiter-Glo;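 also: cell proliferation inhibition after four days measured by CellTiter-Glo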
[2] = biological target: GDP-bound NRAS wild-type protein (Homo sapiens, UniProt P01111); assay: Binding to NRAS by surface plasmon resonance (SPR), Single Cycle Kinetics; conditions: ratio of KD for GDP-bound NRAS wild-type protein to KD for KRAS, SPR
GDP-bound NRAS wild-type protein, sequence (P01111 whole entry): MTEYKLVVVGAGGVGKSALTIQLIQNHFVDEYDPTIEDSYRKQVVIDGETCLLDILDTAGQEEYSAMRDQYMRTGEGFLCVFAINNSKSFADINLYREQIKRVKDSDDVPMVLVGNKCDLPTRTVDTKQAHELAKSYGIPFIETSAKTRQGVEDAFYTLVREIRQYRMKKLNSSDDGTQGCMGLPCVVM

[3] = biological target: GDP-bound KRAS wild-type protein (Homo sapiens, UniProt P01116); assay: Binding to KRAS by surface plasmon resonance (SPR), Single Cycle Kinetics; conditions: SPR, Single Cycle Kinetics, GDP-bound KRAS wild-type protein; read-out: KRAS KD
GDP-bound KRAS wild-type protein, sequence (P01116 whole entry): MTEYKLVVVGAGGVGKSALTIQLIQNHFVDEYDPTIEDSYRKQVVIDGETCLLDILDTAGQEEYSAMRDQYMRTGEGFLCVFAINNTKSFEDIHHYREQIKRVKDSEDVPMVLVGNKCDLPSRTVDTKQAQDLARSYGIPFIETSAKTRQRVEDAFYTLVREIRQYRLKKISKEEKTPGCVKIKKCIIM

[4] = biological target: GDP-bound HRAS wild-type protein (Homo sapiens, UniProt P01112); assay: Binding to HRAS by surface plasmon resonance (SPR), Single Cycle Kinetics; conditions: ratio of KD for GDP-bound HRAS wild-type protein to KD for KRAS, SPR
GDP-bound HRAS wild-type protein, sequence (P01112 whole entry): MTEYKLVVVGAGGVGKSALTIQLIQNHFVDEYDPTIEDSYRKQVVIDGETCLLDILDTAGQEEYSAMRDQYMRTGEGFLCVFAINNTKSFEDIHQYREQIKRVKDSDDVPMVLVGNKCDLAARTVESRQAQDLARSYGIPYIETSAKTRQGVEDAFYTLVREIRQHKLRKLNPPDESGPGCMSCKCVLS

Structure (SMILES) | IC50 [1] [nM] | NRAS/KRAS (KD ratio) [2] | Kd [3] [nM] | HRAS/KRAS (KD ratio) [4]
CC[C@H](C)[C@@H]1NC(=O)[C@H](CC)N(C)C(=O)C[C@@H](C(=O)N(C)C)N(C)C(=O)[C@H](C2CCCC2)N(C)C(=O)C2(CCC2)N(C)C(=O)[C@@H]2CCCN2C(=O)[C@H](CCc2cc(F)c(C(F)(F)F)c(F)c2)NC(=O)CN(C)C(=O)[C@H](Cc2ccc(C(F)(F)F)cc2)N2CC/C=C\C[C@@H](C2=O)N(C)C(=O)CN(C)C1=O [PP1780] | 8.2 | A (a compound having 10 or more and less than 20 is denoted as A) | 0.065 | A (a compound having 10 or more and less than 20 is denoted as A)
CCCN(C)C(=O)[C@@H]1CC(=O)N(C)[C@@H](CC2CC2)C(=O)N[C@@H]([C@@H](C)CC)C(=O)N(C)CC(=O)N(C)[C@H]2C/C=C\CCN(C2=O)[C@@H](Cc2ccc(C(F)(F)F)cc2)C(=O)N(C)CC(=O)N[C@@H](CCc2cc(F)c(C(F)(F)F)c(F)c2)C(=O)N2C[C@H](OCC)C[C@H]2C(=O)NC2(CC(F)(F)C2)C(=O)N(C)[C@@H](C2CCCC2)C(=O)N1C [PP1739] | 5.5 | AA (a compound having 20 or more is denoted as AA) | 0.054 | AA (a compound having 20 or more is denoted as AA)
CCO[C@@H]1C[C@H]2C(=O)NC3(CC(F)(F)C3)C(=O)N(C)[C@@H](C3CCCC3)C(=O)N(C)[C@H](C(=O)N(C)C)CC(=O)N(C)[C@@H](CC3CCC3)C(=O)N[C@@H]([C@@H](C)CC)C(=O)N(C)CC(=O)N(C)[C@H]3C/C=C\CCN(C3=O)[C@@H](Cc3ccc(C(F)(F)F)cc3)C(=O)N(C)CC(=O)N[C@@H](CCc3cc(F)c(C(F)(F)F)c(F)c3)C(=O)N2C1 [PP1742] | 1.6 | A (a compound having 10 or more and less than 20 is denoted as A) | 0.051 | A (a compound having 10 or more and less than 20 is denoted as A)
CCCN(C)C(=O)[C@@H]1CC(=O)N(C)[C@@H](COC)C(=O)N[C@@H]([C@@H](C)CC)C(=O)N(C)CC(=O)N(C)[C@H]2C/C=C\CCN(C2=O)[C@@H](Cc2ccc(C(F)(F)F)cc2)C(=O)N(C)CC(=O)N[C@@H](CCc2cc(F)c(Cl)c(F)c2)C(=O)N2C[C@H](OCC)C[C@H]2C(=O)NC2(CC(C)(C)C2)C(=O)N(C)[C@@H](C2CCCC2)C(=O)N1C [PP1763] | 13.3 | A (a compound having 10 or more and less than 20 is denoted as A) | 0.23 | A (a compound having 10 or more and less than 20 is denoted as A)
CC[C@H](C)[C@@H]1NC(=O)[C@H](COC)N(C)C(=O)C[C@@H](C(=O)N(C)C)N(C)C(=O)[C@H](C2CCCC2)N(C)C(=O)C2(CC(C)(C)C2)NC(=O)[C@@H]2CC(F)(F)CN2C(=O)[C@H](CCc2cc(F)c(C(F)(F)F)c(F)c2)NC(=O)CN(C)C(=O)[C@H](Cc2ccc(C(F)(F)F)cc2)N2CC/C=C\C[C@@H](C2=O)N(C)C(=O)CN(C)C1=O [PP1717] | 2.4 | A (a compound having 10 or more and less than 20 is denoted as A) | 0.051 | A (a compound having 10 or more and less than 20 is denoted as A)
CCO[C@@H]1C[C@H]2C(=O)NC3(CC(C)(C)C3)C(=O)N(C)[C@@H](C3CCCC3)C(=O)N(C)[C@H](C(=O)N(C)CC)CC(=O)N(C)[C@@H](CC3CC3)C(=O)N[C@@H]([C@@H](C)CC)C(=O)N(C)CC(=O)N(C)[C@H]3C/C=C\CCN(C3=O)[C@@H](Cc3ccc(C(F)(F)F)cc3)C(=O)N(C)CC(=O)N[C@@H](CCc3cc(F)c(C(F)(F)F)c(F)c3)C(=O)N2C1 [PP1648] | 2.1 | A (a compound having 10 or more and less than 20 is denoted as A) | 0.11 | A (a compound having 10 or more and less than 20 is denoted as A)
CC[C@H](C)[C@@H]1NC(=O)[C@H](CC)N(C)C(=O)C[C@@H](C(=O)N(C)CC)N(C)C(=O)[C@H](C2CCCC2)N(C)C(=O)C2(CC(C)(C)C2)NC(=O)[C@@H]2C[C@@H](C)CN2C(=O)[C@H](CCc2ccc(C(F)(F)F)c(Cl)c2)NC(=O)CN(C)C(=O)[C@H](Cc2ccc(C)cc2)N2CC/C=C\C[C@@H](C2=O)N(C)C(=O)CN(C)C1=O [PP1876] | 23 | A (a compound having 10 or more and less than 20 is denoted as A) | 0.2 | A (a compound having 10 or more and less than 20 is denoted as A)
CCCN1C(=O)CN(C)C(=O)CNC(=O)[C@H]([C@@H](C)CC)NC(=O)[C@H](CC(C)C)N(C)C(=O)C[C@@H](C(=O)N2CCOCC2)N(CC)C(=O)[C@H](C2CCCC2)N(C)C(=O)C2(CCCC2)NC(=O)[C@@H]2CCCN2C(=O)[C@H](CCc2ccc(C(F)(F)F)c(Cl)c2)NC(=O)CN(C)C(=O)[C@@H]1Cc1ccc(C(F)(F)F)cc1 [PP1970] ([NMeL]IG[Sar][NPrPhe(4-CF3)][Sar][hPhe(3-Cl-4-CF3)]P[Ac5c][NMeGly(cPent)][NEtAsp]-Morpholide; lactam N-11) | 16.8 | B (a compound having 3 or more and less than 10 is denoted as B) | 0.62 | B (a compound having 3 or more and less than 10 is denoted as B)
CCCN(C)C(=O)[C@@H]1CC(=O)N(C)[C@@H](COC)C(=O)N[C@@H]([C@@H](C)CC)C(=O)N(C)CC(=O)N(C)[C@H]2C/C=C\CCN(C2=O)[C@@H](Cc2ccc(C(F)(F)F)cc2)C(=O)N(C)CC(=O)N[C@@H](CCc2cc(F)c(C(F)(F)F)c(F)c2)C(=O)N2C[C@H](OCC)C[C@H]2C(=O)NC2(CCC2)C(=O)N(C)[C@@H](C2CCCC2)C(=O)N1C [PP1706] | 6.7 | A (a compound having 10 or more and less than 20 is denoted as A) | 0.075 | A (a compound having 10 or more and less than 20 is denoted as A)
CCCN(C)C(=O)[C@@H]1CC(=O)N(C)[C@@H](COC)C(=O)N[C@@H]([C@@H](C)CC)C(=O)N(C)CC(=O)N(C)[C@H]2C/C=C\CCN(C2=O)[C@@H](Cc2ccc(C(F)(F)F)cc2)C(=O)N(C)CC(=O)N[C@@H](CCc2cc(F)c(C(F)(F)F)c(F)c2)C(=O)N2C[C@H](OCC)C[C@H]2C(=O)NC2(CC(F)(F)C2)C(=O)N(C)[C@@H](C2CCCC2)C(=O)N1C [PP1743] | 5.1 | AA (a compound having 20 or more is denoted as AA) | 0.076 | A (a compound having 10 or more and less than 20 is denoted as A)
CCO[C@@H]1C[C@H]2C(=O)NC3(CC(C)(C)C3)C(=O)N(C)[C@@H](C3CCCC3)C(=O)N(C)[C@H](C(=O)N(C)C)CC(=O)N(C)[C@@H](CC3CCC3)C(=O)N[C@@H]([C@@H](C)CC)C(=O)N(C)CC(=O)N(C)[C@H]3C/C=C\CCN(C3=O)[C@@H](Cc3ccc(C(F)(F)F)cc3)C(=O)N(C)CC(=O)N[C@@H](CCc3cc(F)c(Cl)c(F)c3)C(=O)N2C1 [PP1762] | 8.4 | A (a compound having 10 or more and less than 20 is denoted as A) | 0.26 | A (a compound having 10 or more and less than 20 is denoted as A)
CCO[C@@H]1C[C@H]2C(=O)NC3(CCC3)C(=O)N(C)[C@@H](C3CCCC3)C(=O)N(C)[C@H](C(=O)N(C)CC)CC(=O)N(C)[C@@H](CC3CC3)C(=O)N[C@@H]([C@@H](C)CC)C(=O)N(C)CC(=O)N(C)[C@H]3C/C=C\CCN(C3=O)[C@@H](Cc3ccc(C)cc3)C(=O)N(C)CC(=O)N[C@@H](CCc3ccc(C(F)(F)F)c(OC)c3)C(=O)N2C1 [PP1879] | 16.9 | A (a compound having 10 or more and less than 20 is denoted as A) | 0.18 | B (a compound having 3 or more and less than 10 is denoted as B)
CCOC[C@H]1C(=O)N[C@@H]([C@@H](C)CC)C(=O)N(C)CC(=O)N(C)[C@H]2C/C=C\CCN(C2=O)[C@@H](Cc2ccc(C(F)(F)F)cc2)C(=O)N(C)CC(=O)N[C@@H](CCc2ccc(C(F)(F)F)c(OC)c2)C(=O)N2C[C@@H](C)C[C@H]2C(=O)NC2(CC(C)(C)C2)C(=O)N(C)[C@@H](C2CCCC2)C(=O)N(C)[C@H](C(=O)N(C)CC)CC(=O)N1C [PP1993] | 13.3 | A (a compound having 10 or more and less than 20 is denoted as A) | 0.12 | A (a compound having 10 or more and less than 20 is denoted as A)
CC[C@H](C)[C@@H]1NC(=O)[C@H](CC(C)C)N(C)C(=O)C[C@@H](C(=O)N(C)C)N(C)C(=O)[C@H](C2CCCC2)N(C)C(=O)C2(CC(C)(C)C2)NC(=O)CN(C)C(=O)[C@H](CCc2cc(F)c(C(F)(F)F)c(F)c2)NC(=O)CN(C)C(=O)[C@H](Cc2ccc(C(F)(F)F)cc2)N2CC/C=C\C[C@@H](C2=O)N(C)C(=O)CN(C)C1=O [PP1776] | 98.7 | A (a compound having 10 or more and less than 20 is denoted as A) | 0.54 | A (a compound having 10 or more and less than 20 is denoted as A)
